These results are taken from ChEMBL document CHEMBL1201862, “PubChem BioAssay data set” (2004).

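Cells were grown in 96-well plates and exposed to each compound for 48 hours at five concentrations; endpoints were interpolated linearly between bracketing concentrations, or set to the highest concentration if not reached. GI50: concentration for 50% inhibition of growth.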 Active and inactive are the calls of the source. No stated cut-off is given here; in the data, active = GI50 up to about 1.1 µM and inactive = higher. Where only a bound is given, the exact number is not on record here.

Among the test systems are OVCAR-5; HT-29; HOP-62; SR; SN12C; UACC-257; NCI-H522; EKVX; SK-OV-3; HOP-92; RPMI-8226; M14; LOX IMVI; U-251; NCI-H226; OVCAR-3; CCRF-CEM; SF-268.
Holding throughout (assay): NCI anticancer screen, dose series, 48 h

Turning to `CN(C)CCNC(=O)c1cccc2nc3cc(Cl)ccc3nc12`, the GI50 is 3.05 µM (inactive) with OVCAR-5; 1.36 µM (inactive) with HT-29; 2.14 µM (inactive) in the experiment on HOP-62; 0.531 µM (active) in the experiment with SR; 2.07 µM (inactive) in the experiment on SN12C; 2.82 µM (inactive) in the experiment with UACC-257. For the same compound, the GI50 was 2.92 µM (inactive) in the experiment with NCI-H522; 4.25 µM (inactive) in the experiment with EKVX; 5.94 µM (inactive) in the experiment on SK-OV-3; 5.77 µM (inactive) in the experiment on HOP-92; 3.07 µM (inactive) in the experiment on RPMI-8226; 3 µM (inactive) in the experiment on M14. Besides, the GI50 in the experiment with LOX IMVI is 1.26 µM (inactive); in the experiment with U-251, 2.86 µM (inactive); with NCI-H226, 1.64 µM (inactive); with OVCAR-3, 2.17 µM (inactive).
For the compound `[N-]=[N+]=NC(CBr)c1cn([C@H]2C[C@H](O)[C@@H](CO)O2)c(=O)[nH]c1=O` (stereo partly specified), the GI50 in the experiment on OVCAR-5, in the experiment on HT-29, with HOP-62, in the experiment on SR, in the experiment on SN12C and in the experiment with NCI-H522 was > 100 µM (inactive) throughout. For the same compound, the GI50 with EKVX, in the experiment on SK-OV-3, in the experiment on HOP-92, in the experiment on CCRF-CEM, in the experiment on RPMI-8226 and in the experiment with M14 was > 100 µM (inactive) in each case. In addition, the GI50 in the experiment with LOX IMVI, in the experiment with U-251, with NCI-H226 and in the experiment on OVCAR-3 was > 100 µM (inactive) throughout.
For the compound `Nc1ncnc2c1ncn2C1OC(CSCC(F)(F)F)C(O)C1O` (stereo unspecified), the GI50 in the experiment with OVCAR-5, in the experiment on HT-29, in the experiment on HOP-62, in the experiment with SR, in the experiment on SN12C and with UACC-257 was > 100 µM (inactive) throughout. The GI50 is 45 µM (inactive) in the experiment on NCI-H522; > 100 µM (inactive) in the experiment with EKVX; > 100 µM (inactive) in the experiment with SK-OV-3; > 100 µM (inactive) with HOP-92; > 100 µM (inactive) in the experiment on SF-268; > 100 µM (inactive) in the experiment with RPMI-8226. Further, the GI50 in the experiment on M14, with LOX IMVI, in the experiment on U-251, with NCI-H226 and in the experiment with OVCAR-3 was > 100 µM (inactive) each time.
Take `N#CC(C(=O)CCCC(=O)Nc1ccc(Cl)cc1Cl)c1ccc(Cl)cc1` (stereo unspecified): the GI50 with OVCAR-5, in the experiment on HT-29, with HOP-62, with SR, in the experiment on SN12C and with UACC-257 was > 100 µM (inactive) each time. For the same compound, the GI50 in the experiment with NCI-H522, in the experiment with SK-OV-3, with HOP-92, in the experiment on SF-268, in the experiment with RPMI-8226 and in the experiment on M14 was > 100 µM (inactive) in each case. The GI50 in the experiment with LOX IMVI, with NCI-H226 and with OVCAR-3 was > 100 µM (inactive) in each case.
Consider `CN(C)C(=S)/N=c1\ss/c(=N\S(=O)(=O)c2ccccc2)n1C`, for which the GI50 in the experiment with OVCAR-5, in the experiment on HT-29, with HOP-62, in the experiment on SR, in the experiment on SN12C and with UACC-257 was > 100 µM (inactive) throughout. For the same compound, the GI50 in the experiment on NCI-H522, in the experiment with EKVX, in the experiment with SK-OV-3, in the experiment with HOP-92, with SF-268 and in the experiment with CCRF-CEM was > 100 µM (inactive) in each case. Besides, the GI50 in the experiment with RPMI-8226, in the experiment with M14, with LOX IMVI, with U-251 and in the experiment with NCI-H226 was > 100 µM (inactive) in each case.
